# What was measured:
# H460 (lung carcinoma) = assay: Antiproliferative activity in vitro, MTT assay, 72 h; assay type: cell-based; details: Homo sapiens, NCI-H460, 72 h incubation
# Experimental: (§1) The experiments were carried out on four human cell lines which are derived from three cancer types: H460 (lung carcinoma), HCT 116 (colorectal carcinoma), MCF-7 (human breast cancer) and the non-cancerous cell line HEK 293 (human embryonic kidney).
# (§2) The results are compared with the known antiproliferative agents doxorubicin and etoposide. […] Therefore, it is not clear whether the observed antiproliferative activity is due to the biological activity of the compounds or to precipitation.
# (§3) The experiments were performed on four human cell lines, including HCT 116 (colon carcinoma), H 460 (lung carcinoma), MCF-7 (breast carcinoma) and HEK 293 (human embryonic kidney cells), in line with previously published experimental procedures. Briefly, the cells were grown in DMEM medium with the addition of 10% fetal bovine serum (FBS), 2 mM of L-glutamine, 100 U/mL of penicillin and 100 µg/mL of streptomycin and cultured as monolayers at 37 °C in a humidified atmosphere with 5% CO2. Cells were seeded at 2 × 10^3 cells/well in standard 96-well microtiter plates and left to attach for 24 h. The next day, a test compound was added in five serial 10-fold dilutions. The rate of cell growth was evaluated after 72 h of incubation with MTT assays. […] Each test was performed in quadruplicate in at least two individual experiments.
# [1] = test system: HCT 116 (colorectal carcinoma); assay: as above; assay type: cell-based; details: Homo sapiens, 72 h incubation, '-' with footnote a = did not show biological activity due to precipitation
# Experimental: as §1, §2, §3
# [2] = test system: MCF-7 (human breast cancer); assay: as above; assay type: cell-based; details: MCF7, 72 h incubation
# Experimental: as §1, §2, §3
# [3] = test system: HEK 293 (human embryonic kidney); assay: Antiproliferative activity in vitro, MTT assay, 72 h, non-cancerous cell line; assay type: cell-based; details: HEK293, 72 h incubation, '-' with footnote a = did not show biological activity due to precipitation
# Experimental: as §1, §2, §3
# [4] = Ferric reducing/antioxidant power (FRAP assay); design: FRAP: unit not given here; details: for FRAP: Fe2+ equivalents, triplicate
# Experimental: (§4) The synthesized benzazole acrylonitrile derivatives were screened for their antioxidative potency by using in vitro assays, namely DPPH and ABTS as free radical scavenging assays and FRAP as a ferric reducing/antioxidant power assay.
# The antioxidant activity of a substance is directly related to its reducing power.
# The FRAP method was carried out according to previously described procedures with some modifications to make it compatible with an assay on a 96-well microplate. All results were expressed as Fe^2+ equivalents (Fe^2+ µmol). Ferrous sulphate (FeSO4 × 7H2O) was used to develop a standard curve of 20–2000 µmol/l for the FRAP test.
# [5] = ABTS radical scavenging assay; details: head prints 'mM (* µM)'; no cell carries an asterisk
# Text: as §4
# (§5) The well-known antioxidant butylated hydroxytoluene (BHT) was used as a standard for comparing activity during testing. The DPPH assay is a standard commonly used test for the in vitro assessment of the antioxidant capacity of novel compounds by using their ability to scavenge the stable radical 1,1-diphenyl-picrylhydrazyl. […] Another test used to evaluate the antioxidative capacity of novel compounds was the ABTS test, by which their activity was evaluated by scavenging the stable radical 3-ethylbenzthiazoline-6-sulphonic acid.
# The total antioxidant activity (TEAC) method was adapted for use with a microplate reader. […] On the day of analysis, the ABTS•+ solution was diluted with PBS (pH7.4) to attain an absorbance of 0.700 ± 0.01 at 734 nm. This radical state remained stable for over two days when stored in the dark at room temperature. The standards and solutions of the tested compounds (10 µL) were mixed with the working ABTS•+ solution (200 µL) in microplate wells and incubated at room temperature for 5 min. The reduction in absorbance at 734 nm was measured using a µQuant (Biotec Inc., Auburn, CA, USA) microplate reader. The percentage scavenging of the test samples at each concentration was calculated using the following formula:[(Abscontrol − Abscompound)/Abscontrol] × 100
# The IC50 values for each compound were calculated from dose–response curves. All measurements where carried out in triplicate with a linear regression analysis.
# S. aureus ATCC 29213 = assay: Antibacterial activity in vitro, broth microdilution MIC; assay type: cell-based, Staphylococcus aureus; details: broth microdilution, 16–24 h at 37 °C; unit inferred
# Experimental: (§6) The in vitro antibacterial activity of the synthesized benzamides 7–12 and 31–37 was evaluated against a panel of eight different bacterial strains. The Gram-positive bacterial strains comprised S. aureus, S. pneumoniae and E. faecalis, and the panel of Gram-negative bacteria consisted of E. coli, K. pneumoniae, A. baumannii and P. aeruginosa.
# (§7) The selected bacterial strains were Gram-negative Escherichia coli (ATCC 25922) and Gram-positive Staphylococcus aureus (ATCC 29213) and S. Pneumoniae (ATCC 49619). The Saccharomyces cerevisiae ATCC 7752 strain was tested as a eukaryotic model organism. Synthesized compounds were prepared as 10 mM DMSO solutions and tested in a final concentration range of 100–0.2 µM [39].
# (§8) Broth microdilution testing was performed according to CLSI (Clinical Laboratory Standards Institute) guidelines. The MIC (minimal inhibitory concentration) value was defined as the last tested concentration of a compound at which there is no visible growth of bacteria. Inoculums for each microorganism were prepared using the direct colony suspension method, where broth solutions that achieved turbidity equivalent to 0.5 McFarland standards were additionally diluted 100× with cation-adjusted MH media (Becton Dickinson). All test plates were incubated for 16–24 h at 37 °C.
# A. baumannii ATCC 17978 = assay: as above; assay type: cell-based; details: 16–24 h at 37 °C, unit inferred
# Experimental: as §6, §7, §8
# E. faecalis ATCC 29212 = assay: as above; assay type: cell-based; details: for Selectivity of antibacterial activity, in words: against the Gram-positive strain E. faecalis; for MIC E. faecalis ATCC 29212: broth microdilution, 16–24 h at 37 °C, unit inferred
# Experimental: as §6, §7, §8
# P. aeruginosa ATCC 27853 = assay: as above; assay type: cell-based; details: 16–24 h at 37 °C, unit inferred
# Experimental: as §6, §7, §8
# E. coli ATCC 25922 = assay: as above; assay type: cell-based, Escherichia coli; details: 16–24 h at 37 °C, unit inferred
# Experimental: as §6, §7, §8
# E. coli efflux del. = assay: microbe, parasite or virus in culture; assay type: cell-based, Escherichia coli; details: broth microdilution, 16–24 h at 37 °C; unit inferred
# Experimental: as §6, §7, §8
# [6] = DPPH free radical scavenging assay; details: compared to the standard BHT
# Text: as §4, §5
# Determination of the reducing activity of the stable radical 1,1-diphenyl-picrylhydrazyl (DPPH):
# The reducing activity of the investigated systems was measured by the DPPH method according to previously described procedures with modifications to ensure their use on a 96-well microplate. Briefly, equal volumes of various concentrations of the tested molecules (dissolved in DMSO) were added to a solution of DPPH (final concentration of 50 µM in absolute ethanol). Ethanol and DMSO were used as control solutions in line with earlier reports. The radical scavenging activity was calculated using the following formula:[(A517 control − A517 compound)/A517 control] × 100.
# The IC50 values were calculated from dose–response curves using nonlinear regression analysis with the GraphPad Prism 8 Ink. program. All measurements were carried out in triplicate.
# HCT 116 cells = assay: Antioxidative activity assay in cells (ROS level, DCFH-DA fluorescence); assay type: cell-based, human; details: HCT 116, TBHP 100 µM plus 10 µM compound, 1 h, compared to NAC
# Text: We further selected compounds 9, 10, 32 and 36, showing quite pronounced antioxidant capacity in the DPPH and FRAP assays, in order to test their pro- and antioxidant activity in tumor cells. In order to test the antioxidant activity of the selected compounds in tumor cells (Figure 2), we treated HCT 116 cells with tert-butyl hydroperoxide (TBHP), a substance commonly used for inducing oxidative stress in cells and tissues, alone or in combination with a known antioxidative agent, N-acetyl-L-cysteine (NAC), or the tested compounds. We measured the formation of oxidative stress byproducts using 2′,7′-dichlorodihydrofluorescein diacetate (DCFH-DA).
# For the antioxidative activity assay, 2.5 × 10^4 cells were seeded into 96-well microtiter plates and left to attach for 24 h. The next day, cells were washed with PBS and incubated in FBS-free DMEM medium with 25 µM of DCFH-DA fluorescence dye. After 45 min of incubation, the medium was discarded, and the cells were washed with PBS.
# After the washing step, the cells were incubated with 100 µM of tert-butyl hydroperoxide (TBHP) alone or in combination with antioxidative agents (50 mM of N-Acetyl-L-cysteine-NAC or 10 µM of the tested compounds) in PBS for 1 h at 37 °C. DCFH-DA fluorescence was recorded on a microplate fluorimeter reader (Tecan) with an excitation beam of 485 nm, while the emitted fluorescence was collected at 535 nm. All tests were presented as the means of two independent measurements carried out in triplicate. One-way ANOVA with Tukey’s post hoc test was used for statistical analysis: *—p < 0.05; **—p < 0.01; ***—p < 0.001.
# Figure 2 Antioxidative activity of selected systems. HCT 116 cells were treated with a combination of H2O2 (4 mM) and N-acetyl-L-cysteine (NAC, 10 mM) or the tested compounds (10 mM). Treatment with H2O2 (4 mM) alone was used as a control for ROS induction. The level of reactive oxygen species (ROS) was measured with the fluorescent dye DCFH-DA using a fluorimeter. The data presented here are the results of three independent measurements carried out in triplicate. A one-way ANOVA with Tukey’s post hoc test was used for statistical analysis, *** p < 0.001; ns—not significant.
Compound,IC50 (H460 (lung carcinoma)),IC50 [1],IC50 [2],IC50 [3],FRAP [4],IC50 [5],MIC S. aureus ATCC 29213 (S. aureus ATCC 29213),MIC A. baumannii ATCC 17978 (A. baumannii ATCC 17978),"Selectivity of antibacterial activity, in words (E. faecalis ATCC 29212)",MIC E. faecalis ATCC 29212 (E. faecalis ATCC 29212),MIC P. aeruginosa ATCC 27853 (P. aeruginosa ATCC 27853),MIC E. coli ATCC 25922 (E. coli ATCC 25922),MIC E. coli efflux del. (E. coli efflux del.),melting point,"FRAP ferric reducing/antioxidant power, in words ([4]; compared to the standard BHT)","DPPH free radical scavenging activity, in words [6]",Level of ROS in cells under induced oxidative stress (HCT 116 cells)
"O=C(Nc1nc2ccccc2[nH]1)c1ccc(O)cc1O [Compound 31, N-(1H-benzo[d]imidazol-2-yl)-2,4-dihydroxybenzamide]",> 100 µM,38.6 ± 15.6 µM,35.1 ± 6.9 µM,24.5 ± 6.4 µM,89.29 ± 21.92,0.13 ± 0.006 mM,> 64 µM,> 64 µM,selective antibacterial activity,32 µM,> 64 µM,> 64 µM,64 µM,212 to 214 °C,–,–,–
"Cn1c(NC(=O)c2cc(O)c(O)c(O)c2)nc2ccccc21 [Compound 9, 3,4,5-trihydroxy-N-(1-methyl-1H-benzo[d]imidazol-2-yl)benzamide]",> 100 µM,> 100 µM,35.5 ± 5.2 µM,32.3 ± 6.5 µM,4036.77 ± 8.82,–,64 µM,> 64 µM,–,64 µM,> 64 µM,> 64 µM,> 64 µM,–,excellent in vitro antioxidant activity,significantly improved,reducing the level of ROS in the cells
"Cn1c(NC(=O)c2ccc(O)cc2O)nc2cc(C#N)ccc21 [Compound 35, N-(5-cyano-1-methyl-1H-benzo[d]imidazol-2-yl)-2,4-dihydroxybenzamide]",> 100 µM,10 ± 1.6 µM,8.7 ± 1.5 µM,33.5 ± 6.5 µM,278.61 ± 3.28,0.19 ± 0.04 mM,> 64 µM,> 64 µM,selective antibacterial activity,16 µM,> 64 µM,> 64 µM,64 µM,273 to 275 °C,–,–,–
